Assay results as given in patent US10858335B2 (Rigel Pharmaceuticals, Inc., priority 2014, dated 2020).

test system: GDF8 signaling (p-SMAD-3 (Ser423/425)); assay: AlphaScreen SureFire SMAD3 (p-Ser423/425) assay, GDF8-stimulated cells (GDF pSMAD); type: cell-based; settings: GDF8-stimulated pSMAD3, MPC11; tested as the salt form given; read-out: GDF pSMAD (MPC11) (μM), inhibition of GDF8 signaling
Text: Biological Example 1: AlphaScreen® SureFire® SMAD3 (p-Ser423/425) Assay
The p-SMAD-3 (Ser423/425) SureFire® assay has been designed to measure the phosphorylation of endogenous cellular p-SMAD-3 (Ser423/425) in cell lysates and is a system for the screening of both modulators of receptor activation (e.g. agonists and antagonists) as well as agents acting intracellularly, such as small molecule inhibitors of upstream events. The assay will measure p-SMAD-3 (Ser423/425) activation by either cloned or endogenous receptors, and can be applied to primary cells.
P-SMAD-3 (Ser423/425) SureFire® Assay Protocols
Step A: Preparation of Buffers
1× Lysis buffer: 1 ml of 5× Lysis buffer was diluted with 4 ml of sterile water. After dilution, excess 1× Lysis buffer can be frozen and thawed up to 5 times without loss in activity.
Activation buffer: The buffer was warmed slowly to 37° C. and gently mixed to re-suspend. Activation buffer can be stored at room temperature with no loss in activity.
Reaction buffer: The buffer was kept at 4° C. while in use.
AlphaScreen® Protein A IgG Kit: The kit was stored at 4° C. in the dark.
Reaction buffer+Activation buffer+AlphaScreen® Acceptor beads: Reaction buffer (40 parts), Activation Buffer (10 parts) and Acceptor beads (1 part) were mixed and the mixture was stored at room temperature and used the same day. Mixture was added to 384-well plates; excess mixture was discarded.
Dilution buffer+AlphaScreen® Donor beads: Dilution buffer (20 parts) and Donor beads (1 part) were mixed and the mixture was stored at room temperature and used the same day. Excess mixture was discarded.
Assay control samples: After reconstitution in 250 μl of water, lysates were at −20° C. in single use aliquots.
Step B: Preparation of Samples and Cells
96-well Assay Protocol for 293FT and RMS13 adherent cells can be carried out manually or in high throughput with liquid handling robots.
The cells (80 μL of cells for 96 well plates) were plated in collagen coated tissue culture plates in RPMI or FreeStyle medium (Invitrogen) and incubated overnight. For manual analysis, 6 plates for GDF8, 6 plates for TGFβ, and optionally 6 plates for AlkSca(ALK5 constitutively active) were used.
The compound dilution plates were prepared as follows: 12 μL of DMSO was transferred into first column of 96-well plate, and 16 μL of DMSO was transferred into columns 2-12 of the 96-well plate. 12 μL of compound solution was transferred into first column of the DMSO-containing 96-well plate. Three-fold dilution was performed up to column 10 of the DMSO-containing 96-well plate.
Step C: Treatment and Analysis
The plate containing cells were treated with compounds for about 10 minutes, and then ligand was added. GDF8 or TGFb was added to plates to stimulate. 293FL cells were stimulated for 90 minutes at 37° C.; and RMS13 cells were stimulated for 60 minutes at 37° C. The medium was then removed from the cells, and 1× Lysis Buffer (about 25 μL) was added and the plate was gently agitated on plate shaker for 5-10 minutes.
The lysate (5 μL) was then placed into 384-well shallow plates avoiding the generation of bubbles. To this, the Reaction Buffer+Activation Buffer+AlphaScreen® Acceptor beads mixture (5 μL) was added. The plate was sealed with adhesive cover and shielded from light (e.g., with metal foil), and agitated gently on plate shaker for 2 hours at room temperature.
Dilution buffer+AlphaScreen® Donor beads (2 μL) was then added, and the plate was intubated on the plate shaker for an additional 1½ hours. After completion, the plate was read on Synergy-4 or Enspire plate reader, using AlphaScreen® pSMAD3® settings.
Representative results for inhibition of GDF8 signaling are shown in Table 2(data=GDF pSMAD (MPC11) (μM)): […]

IC50 [µM] | Structure (SMILES)
0.2 | CN(C)CCNc1ncnc2ccc(-c3cccnc3-c3cc(Cl)ccc3F)cc12 [compound 1093]

same assay, conditions: Mus musculus, MPC-11, GDF8-stimulated pSMAD3, MPC11; tested as the salt form given; read-out: GDF pSMAD (MPC11) (μM), inhibition of GDF8 signaling

IC50 [µM] | Structure (SMILES)
1.42 | Cc1cc(-c2ncccc2-c2ccc3ncnc(N)c3c2)c(C)cc1F [compound 1002, 6-(2-(4-fluoro-2,5-dimethylphenyl)pyridin-3-yl)quinazolin-4-amine]
0.45 | Cc1ccc(Cl)c(-c2ncccc2-c2ccc3ncnc(N)c3c2)c1 [compound 984, 6-(2-(2-chloro-5-methylphenyl)pyridin-3-yl)quinazolin-4-amine]
2.77 | Nc1ncnc2ccc(-c3cccnc3-c3cc(O)ccc3Cl)cc12 [compound 1016, 3-(3-(4-aminoquinazolin-6-yl)pyridin-2-yl)-4-chlorophenol]
0.0438 | Nc1ncnc2ccc(-c3cccnc3-c3cc(Cl)ccc3F)nc12 [compound 1039]
1.06 | Cc1cc(C)c(-c2ncccc2-c2ccc3ncnc(N)c3c2)cc1F [compound 988, 6-(2-(5-fluoro-2,4-dimethylphenyl)pyridin-3-yl)quinazolin-4-amine]

same assay, conditions: Mus musculus, MPC-11, MPC11; GDF8-stimulated; p-SMAD3 AlphaScreen; read-out: GDF pSMAD (MPC11) (inhibition of GDF8 signaling)

Structure (SMILES) | IC50 [µM]
Cc1cc(-c2ncccc2-c2ccc3cnc(-c4ccncc4)n3c2)ccc1F [compound 282, 6-(2-(4-Fluoro-3-methylphenyl)pyridin-3-yl)-3-(pyridin-4-yl)imidazo[1,5-a]pyridine] | 19.4
Cc1cccc(-c2ncccc2-c2ccc3ncn(CCCO)c3c2)c1 [compound 38] | 3.23
COc1cnc(-c2cccc(Cl)c2)c(-c2ccn3ncnc3c2)c1 [compound 855, 7-(2-(3-Chlorophenyl)-5-methoxypyridin-3-yl)-[1,2,4]triazolo[1,5-a]pyridine] | 3.44
Cc1c(-c2cccnc2-c2cc(Cl)c(F)cc2F)ccc2ncnn12 [compound 813, 6-(2-(5-Chloro-2,4-difluorophenyl)pyridin-3-yl)-5-methyl-[1,2,4]triazolo[1,5-a]pyridine] | 2.43
Cn1cnc2ccc(-c3cccnc3-c3ccc(F)c(Cl)c3)cc21 [compound 768, 6-(2-(3-Chloro-4-fluorophenyl)pyridin-3-yl)-1-methyl-1H-benzo[d]imidazole] | 0.327
O=C(NCCCN1CCCC1=O)c1cnc2ccc(-c3cccnc3-c3cc(Cl)c(F)cc3F)cn12 [compound 730, 6-(2-(5-Chloro-2,4-difluorophenyl)pyridin-3-yl)-N-(3-(2-oxopyrrolidin-1-yl)propyl)imidazo[1,2-a]pyridine-3-carboxamide] | 0.59
FC(F)Oc1cccc(-c2ncccc2-c2ccc3ncsc3c2)c1 [compound 961, 6-(2-(3-(Difluoromethoxy)phenyl)pyridin-3-yl)benzo[d]thiazole] | 0.129
N#Cc1cnc2ccc(-c3cccnc3-c3cccc(Cl)c3)nn12 [compound 949, 6-(2-(3-Chlorophenyl)pyridin-3-yl)imidazo[1,2-b]pyridazine-3-carbonitrile] | 0.375
Cc1cc(-c2ncccc2-c2ccc3ncc(C(=O)N[C@@H]4CN5CCC4CC5)n3c2)ccc1F [compound 790, (S)-6-(2-(4-Fluoro-3-methylphenyl)pyridin-3-yl)-N-(quinuclidin-3-yl)imidazo[1,2-a]pyridine-3-carboxamide] | 4.99
c1cnc(-c2ccc3[nH]ncc3c2)c(-c2ccc3[nH]ncc3c2)c1 [Compound 64, 5-(3-(1H-Indazol-5-yl)pyridin-2-yl)-1H-indazole] | 0.84
N#Cc1cccc(-c2ncccc2-c2ccc3ncc(C#N)n3c2)c1 [compound 627, 6-(2-(3-Cyanophenyl)pyridin-3-yl)imidazo[1,2-a]pyridine-3-carbonitrile] | 1.26
Cc1cnc2ccc(-c3cccnc3-c3ccc(F)c(Cl)c3)cn12 [compound 764, 6-(2-(3-Chloro-4-fluorophenyl)pyridin-3-yl)-3-methylimidazo[1,2-a]pyridine] | 0.275
Cc1cc(-c2nc3c(cc2-c2ccc4ncsc4c2)NC(=O)CO3)ccc1F [compound 292, 7-(Benzo[d]thiazol-6-yl)-6-(4-fluoro-3-methylphenyl)-1H-pyrido[2,3-b] [1,4]oxazin-2(3H)-one] | 1.74
Cc1cccc(-c2nc(N)ccc2-c2ccc3ncsc3c2)c1 [Compound 29, 5-(Benzo[d]thiazol-6-yl)-6-m-tolylpyridin-2-amine] | 1.45
Cc1cc(-c2ncc(NCc3ccc(O)cc3)cc2-c2ccc3ncsc3c2)ccc1F [compound 333, 4-(((5-(Benzo[d]thiazol-6-yl)-6-(4-fluoro-3-methylphenyl)pyridin-3-yl)amino)methyl)phenol] | 0.376
Cc1cc(-c2ncccc2-c2ccn3ncc(C(=O)NC4CCN(C(C)C)CC4)c3c2)ccc1F [compound 701, 5-(2-(4-Fluoro-3-methylphenyl)pyridin-3-yl)-N-(1-isopropylpiperidin-4-yl)pyrazolo[1,5-a]pyridine-3-carboxamide] | 0.167

Other lines, results leading:

IC50 [µM] | Structure (SMILES)
0.129 | Nc1ncnc2ccc(-c3cccnc3-c3cc(F)cc(Cl)c3)cc12 [compound 460, 6-(2-(3-Chloro-5-fluorophenyl)pyridin-3-yl)quinazolin-4-amine]
0.447 | Cc1ccc(F)c(-c2ncccc2-c2ccc3ncnn3c2)c1 [compound 748, 6-(2-(2-Fluoro-5-methylphenyl)pyridin-3-yl)-[1,2,4]triazolo[1,5-a]pyridine]
0.783 | Nc1ncc2ccc(-c3cccnc3-c3ccc(F)c(Cl)c3)cc2n1 [compound 496, 7-(2-(3-Chloro-4-fluorophenyl)pyridin-3-yl)quinazolin-2-amine]
0.516 | Cn1cnc2ccc(-c3cccnc3-c3ccc(F)c(Cl)c3)cc2c1=O [compound 390, 6-(2-(3-Chloro-4-fluorophenyl)pyridin-3-yl)-3-methylquinazolin-4(3H)-one]
0.699 | Cc1cc(-c2ncccc2-c2ccc3nccnc3c2)ccc1F [compound 539, 6-(2-(4-Fluoro-3-methylphenyl)pyridin-3-yl)quinoxaline]
5.89 | CC(C)Nc1ncnc2ccc(-c3cccnc3-c3ccc(F)c(Cl)c3)cc12 [compound 401, 6-(2-(3-Chloro-4-fluorophenyl)pyridin-3-yl)-N-isopropylquinazolin-4-amine]
3.73 | Fc1ccc(-c2ncccc2-c2ccc3ncnc(Nc4ccncc4)c3c2)cc1Cl [compound 492, 6-(2-(3-Chloro-4-fluorophenyl)pyridin-3-yl)-N-(pyridin-4-yl)quinazolin-4-amine]
2.11 | Fc1cc(F)c(-c2ncccc2-c2ccc3ncccc3c2)cc1F [compound 696, 6-(2-(2,4,5-Trifluorophenyl)pyridin-3-yl)quinoline]
0.628 | Cc1cc(-c2ncccc2-c2ccc3ncnc(NCCCN(C)C)c3c2)ccc1F [compound 423, N1-(6-(2-(4-Fluoro-3-methylphenyl)pyridin-3-yl)quinazolin-4-yl)-N3,N3-dimethylpropane-1,3-diamine]
1.28 | Cc1cc(-c2ncccc2-c2ccc3ncnc(NCCC4CCN(C)CC4)c3c2)ccc1F [compound 422, 6-(2-(4-Fluoro-3-methylphenyl)pyridin-3-yl)-N-(2-(1-methylpiperidin-4-yl)ethyl)quinazolin-4-amine]
1.7 | COCCOc1cccc(-c2ncccc2-c2ccc3ncnc(N)c3c2)c1 [compound 482, 6-(2-(3-(2-Methoxyethoxy)phenyl)pyridin-3-yl)quinazolin-4-amine]
0.492 | N#Cc1cc(-c2ncccc2-c2ccc3ncnc(N)c3c2)ccc1F [compound 477, 5-(3-(4-Aminoquinazolin-6-yl)pyridin-2-yl)-2-fluorobenzonitrile]
